Laboratory results as given in patent US20090104145A1, “Mixtures of Anthranilamide Invertebrate Pest Control Agents” (priority 2004, published 2009).

Assays:
Assay in all cases: whole plant or invertebrate
Type in all cases: in vivo
[1] = test system: silverleaf whitefly (Bemisia argentifolii Bellows and Perring); conditions: Table 2B; rate 10 ppm, compound alone
Method: (§1) The pest control protection afforded by the mixtures or compositions is not limited, however, to these species. The analysis of synergism or antagonism between the mixtures or compositions was determined using Colby's equation. The average % mortality data for the test compounds alone were inserted into the Colby's equation. If the observed average % mortality was higher than “p”, the expected % mortality, the mixture or composition had synergistic effects. If the observed average % mortality was equal to or lower than the expected mortality, the mixture or composition either had no synergistic effect or an antagonistic effect. In these tests, Compound 1 is the compound of Formula 1.
For evaluating control of silverleaf whitefly (Bemisia argentifolii Bellows and Perring) through contact and/or systemic means, each test unit consisted of a small open container with a 12- to 14-day-old cotton plant inside. This was pre-infested by placing test units into cages infested with adult whiteflies so that oviposition on the cotton leaves could occur. The adults were removed from the plants with an air-blast nozzle, and the test units were capped. The test units were then stored 2 to 3 days before spraying.
(§2) Test compounds were formulated using a solution containing 10% acetone, 90% water and 300 ppm X-77® Spreader Lo-Foam Formula non-ionic surfactant containing alkylarylpolyoxyethylene, free fatty acids, glycols and isopropanol (Loveland Industries, Inc.) to provide the desired concentration in ppm. Formulated test solutions were then applied in 1 mL volumes through a SUJ2 atomizer nozzle with ⅛ JJ custom body (Spraying Systems Co.) positioned 1.27 cm (0.5 inches) above the top of each test unit.
The results for all experimental compositions in this test were replicated three times. After spraying of the formulated test composition, each test unit was allowed to dry for 1 hour and the cap removed. The test units were held for 13 days in a growth chamber at 28° C. and 50-70% relative humidity.

[2] = test system: corn planthopper (Pereginus maidis); conditions: rate 0.4 ppm
Method: as §1, §2
For evaluating control of corn planthopper (Pereginus maidis) through contact and/or systemic means, each test unit consisted of a small open cylindrical container with a 3- to 4-day-old corn (maize) plant (spike) inside. White sand was added to the top of the soil prior to application. Test compounds were formulated and sprayed with 3 replications as described for Test A. After spraying, the test units were allowed to dry for 1 hour before they were post-infested with 10 to 20 corn planthoppers (18- to 20-day-old nymphs) by sprinkling them onto the sand with a salt shaker. A black, screened cap was placed on the top of each container. The test units were held for 6 days in a growth chamber at 19-21° C. and 50-70% relative humidity.

[3] = test system: cotton melon aphid (Aphis gossypii Glover); conditions: rate 2 ppm
Method: as §1, §2
For evaluating control of cotton melon aphid (Aphis gossypii Glover) through contact and/or systemic means, each test unit consisted of a small open container with a 6- to 7-day-old cotton plant inside. This was pre-infested by placing on a leaf of the test plant 30 to 40 aphids on a piece of leaf excised from a culture plant (cut-leaf method). The larvae moved onto the test plant as the leaf piece desiccated. After pre-infestation, the soil of the test unit was covered with a layer of sand.
Test compounds were formulated and sprayed as described for Test A. The applications were replicated three times. After spraying of the formulated test compounds, each test unit was allowed to dry for 1 hour and then a black, screened cap was placed on top. The test units were held for 6 days in a growth chamber at 19-21° C. and 50-70% relative humidity.

dinotefuran
% mortality (obs) [1]: 74% | % mortality (obs) [2]: 86% | % mortality (obs) [3]: 64%
